From patent US5093477A, “Rapidly cleavable substrate for HIV protease” (priority 1988, dated 1992)
Where a SMILES comes first, the peptide text is derived from it. [ ]: non-standard residue; d: D form. The star is where a group is joined. Sta = CC(C)C[C@H](N)[C@@H](O)CC(=O)O; Isovaleryl = CC(C)CC(=O)*

What was measured:
Assay type in all cases: biochemical
HIV protease [1] = target: T1, HIV protease (Human immunodeficiency virus type 1 group M subtype B, UniProt P04585); test: HIV protease inhibitor test with Ser-Phe-Asn-Phe-Opr-Gln-Ile as substrate; conditions: substrate Ser-Phe-Asn-Phe-Opr-Gln-Ile 2 mg/ml, HIV protease No. I (1:10), blank 33.62 %
T1 construct: The enzyme is composed of only 99 amino acids and evidently eliminates itself from the pol gene
Description: A) General procedure for testing inhibitors of HIV protease with Ser-Phe-Asn-Phe-Opr-Gln-Ile
2 mg of Ser-Phe-Asn-Phe-Opr-Gln-Ile are dissolved in 1 ml of MGTE15 buffer (possibly using ultrasound) and subsequently filtered through a sterile filter (0.45 μm).
2.5 times the desired molarity of the inhibitor per ml of solution are weighed in and dissolved in DMSO (10% of the final volume). The solution is diluted to the final volume with MGTE15 buffer and filtered through a sterile filter (0.45 μm).
5 μl of the HIV protease solution are diluted with MGTE25 buffer as required.
10 μl portions of the substrate solution are pipetted into test tubes (16×100) with screw caps. 10 μl of MGTE15 buffer which contains 10% DMSO are pipetted into the blank. 10 μl portions of the inhibitor solutions are added to the remaining test tubes. These samples are incubated at 37° C. for 5-10 minutes and then 5 μl of the protease solution are added to each. After reaction at 37° C. for 2 hours, 10 or 20 μl of each sample (depending on the sensitivity of the HPLC apparatus) are removed by pipette, placed in microvials and diluted with 120 μl of the HPLC solvent.
(§1) Solvent system: 80% 0.1 M phosphoric acid pH 2.5. 20% (w/w) acetonitrile
(§2) Column: Merck ®LICHROSORB RP18 (5 μm) 250×4
(§3) Column temperature: 42° C.
(§4) Detector parameters: 215 nm, 0.08 AUF, 18.2° C.
(§5) Analysis time: 11 minutes
The % content of the tetrapeptide peak relative to the tetrapeptide+heptapeptide total corresponds to the proportion cleaved.

HIV protease [2] = target: T1, HIV protease; test: HIV protease kinetics: comparison of the cleavage rate of several substrates (Tab. 6); conditions: substrate 2 mg/ml, HIV protease No. II (1:4)
Description: C) Procedure for the HIV protease kinetics (Tab. 6) 10 μl of substrate solution (2 mg/ml) in MGTEl5 buffer and 10 μl of MGTE15 buffer are combined and incubated at 37° C. for 5-10 minutes. 5 μl of HIV protease No. II (diluted 1:4 with MGTE25 buffer) are added to this, and the mixture is shaken at 37° C. Subsequent procedure as in B).
Column: Merck HIBAR ®LICHROSORB RP8 (7 μm) 250×4
Flow rate: 1 ml min for SFNFPQI and SFNFOQI 0.5 ml/min for […] and VSQNYOIVQ. Otherwise as in Ae).

HIV protease [3] = target: T1, HIV protease; test: HIV protease kinetics: cleavage of peptide substrates followed by HPLC (Tab. 1-4); conditions: substrate 4 mg/ml, HIV protease No. II (5 μl)
Description: e) Conditions for HPLC analysis:
as §1, §2, §3, §4, §5
Retention time of the substrate: 8.1 minutes
Retention time of the N-terminal tetrapeptide: 3.9 minutes
Under the conditions chosen here, the heptapeptides are separated from the N-terminal tetrapeptide produced in the enzymatic cleavage. The % content of the tetrapeptide peak relative to the tetrapeptide+heptapeptide total corresponds to the proportion cleaved.
B) Procedure for HIV protease kinetics (Tab. 1-4)
10 μl of substrate solution (2-4 mg/ml) in MGTE15 buffer and 10 μl of MGTE15 buffer which contains 10% dimethyl sulfoxide are combined and incubated at 37° C. for 5-10 minutes. 5 μl of the HIV protease solution in MGTE25 buffer are added to this, and the mixture is shaken at 37° C. […] The microliter syringe is used to load the total amount onto the HPLC column. HPLC conditions as in A).

Compound	% tetrapeptide = % cleavage (HIV protease [2]; 5 min)	% tetrapeptide = % cleavage (HIV protease [2]; 10 min)	% tetrapeptide = % cleavage (HIV protease [2]; 20 min)	% tetrapeptide = % cleavage (HIV protease [2]; 40 min)	% tetrapeptide = % cleavage (HIV protease [2]; 80 min)	% tetrapeptide = % cleavage (HIV protease [2]; 160 min)	% tetrapeptide = % cleavage (HIV protease [2]; 320 min)	other results
CC(C)CC(=O)N[C@H](C(=O)N[C@H](C(=O)N[C@@H](CC(C)C)[C@@H](O)CC(=O)N[C@@H](C)C(=O)N[C@@H](CC(C)C)[C@@H](O)CC(=O)O)C(C)C)C(C)C [Pepstatin A] (Isovaleryl-VV[Sta]A[Sta]-OH)								Cleavage (%) (HIV protease [1]; inhibitor 10^-4 M): 1.25%; Cleavage (%) (HIV protease [1]; inhibitor 10^-5 M): 4.73%; Cleavage (%) (HIV protease [1]; inhibitor 10^-6 M): 18.22%; Cleavage (%) (HIV protease [1]; inhibitor 10^-7 M): 25.09%
H-SFNFPQI-OH [SFNFPQI, H-Ser-Phe-Asn-Phe-Pro-Gln-Ile-OH]	0.25%	4.68%	7.01%	11.34%	19.50%	34.19%	48.18%	% cleavage after 5 minutes' cleavage time (text summary of Tab. 1 and 2) (HIV protease [3]; 5 minutes, both experiments): about 4%; % cleavage (HIV protease [3]; Experiment A, 5 min): 4.00%; % cleavage (HIV protease [3]; Experiment A, 10 min): 8.19%; % cleavage (HIV protease [3]; Experiment A, 20 min): 14.57%; % cleavage (HIV protease [3]; Experiment A, 40 min): 23.40%; % cleavage (HIV protease [3]; Experiment A, 80 min): 39.43%; % cleavage (HIV protease [3]; Experiment A, 160 min): 58.39%; % cleavage (HIV protease [3]; Experiment A, 320 min): 70.16%; % cleavage (HIV protease [3]; Experiment B, 5 min): 4.15%; % cleavage (HIV protease [3]; Experiment B, 10 min): 7.54%; % cleavage (HIV protease [3]; Experiment B, 20 min): 14.35%; % cleavage (HIV protease [3]; Experiment B, 40 min): 23.00%; % cleavage (HIV protease [3]; Experiment B, 80 min): 37.68%; % cleavage (HIV protease [3]; Experiment B, 160 min): 57.11%; % cleavage (HIV protease [3]; Experiment B, 320 min): 72.51%
H-VSQNYPIVQ-OH	3.66%	6.53%	11.31%	20.32%	31.49%	55.00%	62.48%	
H-Val-Ser-Gln-Asn-Tyr-Opr-Ile-Val-Gln-OH [VSQNYOIVQ]	10.27%	20.72%	40.47%	60.50%	88.98%	100.00%	100.00%	
